In data set [1] the test system is spontaneously hypertensive male rats, strain MHS. Briefly: Anti-hypertensive activity in spontaneously hypertensive rats (MHS), blood pressure and heart rate measured at the tail. In kind it is in vivo, rat (spontaneously hypertensive. The following applies: MHS rats; for Change in BP, 1st day, 1 hr after dose / Change in HR, 1st day, 1 hr after dose / Change in BP, 1st day, 5 hrs after dose / Change in HR, 1st day, 5 hrs after dose / Change in BP, 4th day, 1 hr after dose / Change in HR, 4th day, 1 hr after dose / Change in BP, 4th day, 5 hrs after dose / Change in HR, 4th day, 5 hrs after dose: mean of 4 animals. How it is done: Four spontaneously hypertensive male rats, strains MHS, weighing 250-300 g for each group were used.
The animals were treated for four consecutive days. Drugs were administered by gastric gavage, suspended in 5% arabic gum (0.2 ml/100 g body weight). Blood pressure (BP) and heart rate (HR) were measured at the tail by BP Recorder W+W. Blood pressure and heart rate were measured on the 1st and 4th day of treatment 1 hour before and 1 and 5 hours after drug administration.
*Data of LD50 from the literature. In Tables 1 and 2 are reported
the results of the study of the activity of compounds 355/1165 and
355/1166 upon the BP and HR (measured indirectly by means of a tail cuff)
of spontaneous hypertensive rats, MHS strain (4 rats each group). The
compounds were given orally, once a day for 4 consecutive days.

The next data set relates to male mice. The following applies: data of LD50 from the literature; cited from earlier work.
The subject of data set [2] is spontaneously hypertensive rats (Okamoto strain). Briefly: Anti-hypertensive activity in conscious spontaneously hypertensive rats (Okamoto), carotid artery catheter. In kind it is in vivo, rat (spontaneously hypertensive. As to the method:
Blood pressure recordings were made in conscious hypertensive unrestrained rats weighing approximately 300 g, via a catheter cronically inserted into the left common carotid artery. Implantation of arterial cannula was made under sodium pentobarbital anesthesia (50 mg/kg i.p.). A 1 cm long incision was made through the previously shaved ventral surface of the neck and the tissues overlying the trachea parted by blunt dissection to reveal the carotid artery. The polyethylene catheter used was made with PE 50 tubing, previously filled with saline containing 250 I.U./ml heparin. The tip of the cannula was pushed at least 2 cm inside the vessel toward the heart. The cannula was then firmly tied and passed beneath the skin to emerge from a small incision in the back of the neck. During the postoperative period and before the start of each recording session, the cannula was flushed through daily with saline containing heparin (250 U.I./ml). The experiments were performed two days after surgery. Drugs were administered by gastric gavage.

Data set [3] in a line: Acute (orientative) oral toxicity in mice. The following applies: mouse, in vivo. The text has this:
The male mice for each group were orally treated with drugs at different dose levels for the determination of orientative toxicity.

[4] abbreviates: 5 mg/kg os, 30', mean of 6 animals.
Where [5] appears, read: 5 mg/kg os, 60', mean of 6 animals.
[6] abbreviates: 5 mg/kg os, 120', mean of 6 animals.
Where [7] appears, read: 5 mg/kg os, 240', mean of 6 animals.
Setting [8] is: 5 mg/kg os, 360', mean of 6 animals.

The values below come from US4317912A, “Tetracyclic indole derivatives” (Farmitalia Carlo Erba S.p.A., priority 1979, dated 1982).

On to `C[C@](N)(Cc1ccc(O)c(O)c1)C(=O)O` [α-Methyl-DOPA, reference compound], for which, in data set [1] (30 mg/kg os, 1st day), the “Change in BP, 1st day, 1 hr after dose” value was -27 mmHg; the “Change in HR, 1st day, 1 hr after dose” value is “+33 b/min”; the “Change in BP, 1st day, 5 hrs after dose” value is listed as -4 mmHg; the “Change in HR, 1st day, 5 hrs after dose” value is “+36 b/min”. Moreover, in data set [1] (30 mg/kg os), the “Change in BP, 4th day, 1 hr after dose” value is recorded as -2 mmHg; the “Change in HR, 4th day, 1 hr after dose” value is “+50 b/min”; the “Change in BP, 4th day, 5 hrs after dose” value is reported as 0 mmHg; the “Change in HR, 4th day, 5 hrs after dose” value is on record as “+20 b/min”. Further, in data set [1] (100 mg/kg os, 1st day), the “Change in BP, 1st day, 1 hr after dose” value is reported as -6 mmHg; the “Change in HR, 1st day, 1 hr after dose” value is “+73 b/min”; the “Change in BP, 1st day, 5 hrs after dose” value is given as -22 mmHg; the “Change in HR, 1st day, 5 hrs after dose” value is listed as “+40 b/min”. For the same molecule, in data set [1] (100 mg/kg os), the “Change in BP, 4th day, 1 hr after dose” value was -19 mmHg; the “Change in HR, 4th day, 1 hr after dose” value was “+70 b/min”; the “Change in BP, 4th day, 5 hrs after dose” value is -31 mmHg; the “Change in HR, 4th day, 5 hrs after dose” value is listed as “+20 b/min”. For the same molecule, in data set [1] (oral, all doses treated (Table 2)), the “Effect on heart rate” value was “no effect on heart rate”. Moreover, the “LD50 (orientative toxicity in mice)” value with male mice is on record as 5300 mg/kg per os.
Take `CCOC(=O)C(C#N)CC1CN(C)C2Cc3c[nH]c4cccc(c34)CC12` (stereo not drawn) [355/1166, 2-Cyano-3-[trans-5(10→9)abeo-6-methyl-ergoline-8β]-propionic acid ethyl ester]: in data set [1] (5 mg/kg os, 1st day), the “Change in BP, 1st day, 1 hr after dose” value is -8 mmHg; the “Change in HR, 1st day, 1 hr after dose” value is -25 b/min; the “Change in BP, 1st day, 5 hrs after dose” value is given as -20 mmHg; the “Change in HR, 1st day, 5 hrs after dose” value is on record as -25 b/min. In data set [1] (5 mg/kg os), the “Change in BP, 4th day, 1 hr after dose” value was -22 mmHg; the “Change in HR, 4th day, 1 hr after dose” value is -35 b/min; the “Change in BP, 4th day, 5 hrs after dose” value was -26 mmHg; the “Change in HR, 4th day, 5 hrs after dose” value is -20 b/min. For the same molecule, in data set [1] (5 mg/kg per os), the “Effect on BP” value is reported as “lowers BP at each recording session, but its effect is more pronounced after the 4th dose” and the “Effectiveness compared with α-methyl-DOPA” value amounted to 20 times. The “Hypotensive effect compared with Hydralazine, after 4th administration” value in data set [1] (1st and 5th hours after 4th administration, 5 mg/kg per os vs Hydralazine 3 mg/kg per os) is listed as “greater hypotensive effect”. In data set [1] (1st day, 5 mg/kg per os vs Hydralazine 3 mg/kg per os), the “Activity compared with Hydralazine, 1st day” value is given as “less pronounced activity than Hydralazine”. In data set [2] (setting [4]), the “Change in blood pressure after treatment, 30'” value was 0 mmHg and the “Change in heart rate after treatment, 30'” value is recorded as -20 b/min. Moreover, in data set [2] (setting [5]), the “Change in blood pressure after treatment, 60'” value is reported as -3 mmHg and the “Change in heart rate after treatment, 60'” value was -20 b/min. In data set [2] (setting [6]), the “Change in blood pressure after treatment, 120'” value is -15 mmHg and the “Change in heart rate after treatment, 120'” value is -35 b/min. Moreover, in data set [2] (setting [7]), the “Change in blood pressure after treatment, 240'” value is listed as -18 mmHg and the “Change in heart rate after treatment, 240'” value is -15 b/min. For the same molecule, in data set [2] (setting [8]), the “Change in blood pressure after treatment, 360'” value was -10 mmHg and the “Change in heart rate after treatment, 360'” value was -20 b/min. Moreover, in data set [2] (5 mg/kg per os), the “Effectiveness compared with the reference compound (hydralazine)” value is listed as “less effective than the reference compound”. Besides, the “Effect on heart rate” value in data set [2] (oral (Table 4)) is “slight bradycardia and never tachicardia”. Moreover, the LD50 (usually the dose expected to kill half of the subjects tested) at 168 h in data set [3] was more than 800 mg/kg.
